Positions of bridges follow the written chain, without caps; N, C: chain ends. Residues, ends and D or L forms follow the SMILES beside them. rhodamine = not defined here
Legend:
canonical Wnt signaling = assay: Activity assay (Example 1): TOPflash luciferase reporter in HEK (HEK293-superTOPflash) cells, receptor not specified; type: cell-based, human; conditions: for effect of the peptide by itself on luciferase activity: without Wnt3a; for activity on the frizzled receptor: antagonist or agonist: model of Example 1
Method: (§1) Human embryonic kidney (HEK) cells were used for screening. These cells have a luciferase construct stably transfected into the genome (see FIG. 2A), such that when the frizzled receptor is activated and β-catenin is increased, the luciferase is activated by transcription and light can be measured.
(§2) The peptides were tested by transfecting the frizzled-1 or the frizzled-2 receptor and addition of UM206(S-S) to the cell culture. For testing antagonistic activity, UM206 was added and the natural ligand Wnt3a was added, which is a natural stimulus for the canonical pathway.
Transfection and Luciferase Measurement:
Plate cells in 12-well plates
(§3) Day 2: Transfection 12-Well Plates • heat Fugene6 and DNA 15 minutes at RT • 2 ml serum-free medium in tube • add 3 μl fugene • add 2 μg DNA • incubate 30 minutes at RT • wash with PBS • add 50 μl transfectiemix • add 1 ml antibiotica-free medium
(§4) Day 3: Add Conditioned Medium or UM206
(§5) Day 4: Luciferase Activity Measurements • remove medium • wash with PBS • add 500 μl ⅕ lysisbuffer • shake for 60 minutes • centrifuge in tube • 20 μl lysaat and 50 μl luciferase in new tube for measurement • vortex • measure
(§6) Three areas of high homology that contained two cysteines are underlined (UM207), (UM208) and (UM206). In FIGS. 9B through 9D, the inhibitory effect of these three peptides on Wnt3a-induced luciferase activity in HEK293-superTOPflash is shown. […] Again, the peptides by themselves had no effect on the luciferase activity.
(§7) The cell lines were cultured in 75 cm^2 culture flasks (Corning, Schiphol, the Netherlands) in Dulbeco's modified essential medium with L-glutamine (2 mM), 10% fetal calf serum (Invitrogen, Merelbeke, Belgium), and 1% gentamycin (Sigma-Aldrich, Zwijndrecht, The Netherlands). Before starting the experiment, the cell lines were treated with plasmocin 25 μg/ml (Invivogen, Toulose, France) and tested with a mycoalert mycoplasma detection kit (Lonza, Rockland Me., USA). Cells were transiently transfected with Fugene6 (Roche, Indianapolis Ind., USA) with plasmid DNA, pcDNA3.1/hygro (Invitrogen) with frizzled-1/2/4 or Wnts 3a-5a or with pcDNA3.0 (Invitrogen) containing the β-catenin or frizzled-5 sequence. After transfection, the cells were cultured for 24 hours in conditioned medium, collected from the cultured L-cells, L-cells with Wnt3a or 5a (Invitrogen). At the same moment the antagonist was added.
For the luciferase experiments not in HEK cells, the cells were additionally transfected with a TOPflash construct, eight TCF/LEF binding sites cloned into the pTA-Luc vector. Luciferase activity was measured using luciferase assay system (Promega, Madison Wis., USA).

frizzled-1 (rFzd-1) = target: T1, frizzled-1 (rFzd-1) (Rattus norvegicus, UniProt Q08463); assay: Activity assay: luciferase reporter in HEK superTOPflash cells transfected with frizzled-1; type: cell-based; conditions: for block of Wnt3a-induced luciferase activity, rFzd-1: peptide 1.10^−8 M
T1 construct: expressed in transfected cells; host or cells: HEK293 superTOPflash (transient, Fugene6, pcDNA3.1/hygro)
T1 sequence (Q08463 69-641): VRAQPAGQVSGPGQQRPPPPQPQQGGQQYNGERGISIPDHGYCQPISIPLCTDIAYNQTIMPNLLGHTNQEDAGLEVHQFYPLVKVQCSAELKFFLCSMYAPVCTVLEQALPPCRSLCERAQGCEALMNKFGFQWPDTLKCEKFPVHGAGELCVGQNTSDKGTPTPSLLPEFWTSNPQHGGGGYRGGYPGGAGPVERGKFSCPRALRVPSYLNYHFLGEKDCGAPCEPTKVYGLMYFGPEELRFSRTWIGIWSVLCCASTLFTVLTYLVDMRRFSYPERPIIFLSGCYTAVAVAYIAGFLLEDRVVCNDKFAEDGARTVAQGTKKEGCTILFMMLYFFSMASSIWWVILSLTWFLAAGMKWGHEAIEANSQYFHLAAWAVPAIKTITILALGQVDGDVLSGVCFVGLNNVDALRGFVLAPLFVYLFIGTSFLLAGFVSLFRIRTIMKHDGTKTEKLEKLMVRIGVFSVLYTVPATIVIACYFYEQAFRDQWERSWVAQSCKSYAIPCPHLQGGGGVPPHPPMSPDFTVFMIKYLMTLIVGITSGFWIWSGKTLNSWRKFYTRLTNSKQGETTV
Method: as §1, §2, §3, §4, §5, §6
(§8) To determine the inhibitory constant of UM206-8, HEK293-superTOPflash cells were transfected with either rFzd-1 or -2 and incubated with Wnt3a (10^−9M) in the presence of increasing concentrations of either of the peptides (FIG. 15). For UM206, a biphasic inhibition curve was observed that was best fitted with a two-binding-state model.
as §7

frizzled-2 (rFzd-2) = target: T2, frizzled-2 (rFzd-2) (Rattus norvegicus, UniProt Q08464); assay: Activity assay: luciferase reporter in HEK superTOPflash cells transfected with frizzled-2; type: cell-based; conditions: for block of Wnt3a-induced luciferase activity, rFzd-2: peptide 1.10^−8 M
T2 construct: expressed in transfected cells; host or cells: HEK293 superTOPflash (transient, Fugene6, pcDNA3.1/hygro)
T2 sequence (Q08464 29-570): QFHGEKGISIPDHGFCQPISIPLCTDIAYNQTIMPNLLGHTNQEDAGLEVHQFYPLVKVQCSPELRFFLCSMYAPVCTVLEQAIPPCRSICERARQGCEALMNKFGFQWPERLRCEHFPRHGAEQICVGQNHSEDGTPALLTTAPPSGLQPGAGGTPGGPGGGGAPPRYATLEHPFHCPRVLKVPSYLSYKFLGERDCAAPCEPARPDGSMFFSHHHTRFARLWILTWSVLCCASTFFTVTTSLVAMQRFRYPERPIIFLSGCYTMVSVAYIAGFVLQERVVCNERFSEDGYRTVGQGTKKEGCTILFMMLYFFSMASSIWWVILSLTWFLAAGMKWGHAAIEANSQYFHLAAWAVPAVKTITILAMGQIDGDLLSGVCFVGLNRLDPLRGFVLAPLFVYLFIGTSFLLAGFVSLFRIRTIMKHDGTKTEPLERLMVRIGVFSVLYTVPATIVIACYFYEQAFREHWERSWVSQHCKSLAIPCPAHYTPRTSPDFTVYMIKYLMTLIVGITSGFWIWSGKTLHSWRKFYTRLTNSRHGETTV
Method: as §1, §2, §3, §4, §5, §6, §8, §7

Fzd-1 and -2 = assay: Binding of rhodamine-labeled UM206 to frozen sections of mouse kidney and small intestine and its blocking
Method: Specificity of the binding site was confirmed by prior incubation of the tissue sections with UM207 (1.10^−7 M) or recombinant Wnt3a (1.10^−8 M).
One-half of the hearts of the mice was embedded in paraffin and cut in 4 μm sections. The paraffin sections were rehydrated and washed in PBS. One section was stained with AZAN, allowing an accurate determination of the infarct size. To visualize the myofibroblasts in the infarct area, the sections were incubated with an antibody directed against α-smooth muscle actin (Sigma-Aldrich), followed by incubation with the peroxidase-conjugated secondary antibody (Vector laboratories). Nuclei were visualized by hematoxylin. Photos were taken with a Leica (CTR500, 63×/0.85) camera and analyzed with the Quantimet program (QWin/QGo). An examiner blinded to the groups of the animals obtained all measurements. For the experiments with Rhodamine-labeled UM206, frozen sections (4 μm) of mouse kidney and small intestine were used.

hFzd-4 = target: T3, hFzd-4 (Homo sapiens, UniProt Q9ULV1); assay: Receptor specificity: luciferase in HEK293 superTOPflash cells overexpressing hFzd-4; type: cell-based; conditions: FIG. 3, Panel F
T3 construct: expressed in transfected cells; host or cells: HEK293 superTOPflash (transient, Fugene6, pcDNA3.1/hygro)
T3 sequence (Q9ULV1 37-537): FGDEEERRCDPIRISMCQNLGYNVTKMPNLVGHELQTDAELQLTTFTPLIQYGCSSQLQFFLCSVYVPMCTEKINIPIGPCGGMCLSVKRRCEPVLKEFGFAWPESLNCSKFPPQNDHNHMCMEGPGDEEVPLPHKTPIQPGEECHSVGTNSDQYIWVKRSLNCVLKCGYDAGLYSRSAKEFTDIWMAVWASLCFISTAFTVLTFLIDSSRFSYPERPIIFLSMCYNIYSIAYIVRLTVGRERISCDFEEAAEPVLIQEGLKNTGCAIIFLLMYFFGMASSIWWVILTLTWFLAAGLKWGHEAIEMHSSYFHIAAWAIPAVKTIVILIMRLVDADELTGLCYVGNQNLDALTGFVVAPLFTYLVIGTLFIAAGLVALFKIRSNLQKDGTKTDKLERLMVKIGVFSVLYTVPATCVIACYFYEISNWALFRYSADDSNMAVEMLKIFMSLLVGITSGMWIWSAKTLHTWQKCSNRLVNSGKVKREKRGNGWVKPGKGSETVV
Method: In FIG. 3, Panel E, the efficacy of UM206 to block the Wnt3a-induced activation of luciferase activity in HEK293 superTOPflash cells transfected with different Fzds is shown.
as §7

| Molecule | block of Wnt3a-induced luciferase activity, rFzd-1 (frizzled-1 (rFzd-1)) | block of Wnt3a-induced luciferase activity, rFzd-2 (frizzled-2 (rFzd-2)) | effect of the peptide by itself on luciferase activity (canonical Wnt signaling) | activity on the frizzled receptor: antagonist or agonist (canonical Wnt signaling) | other results |
| --- | --- | --- | --- | --- | --- |
| CNVSSHGIDGCDL (listed as Homo sapiens) [peptide derived from the area of Wnt3a homologous to UM206] | – | – | – | – | antagonistic properties of UM206 analogues (canonical Wnt signaling; alanine scan and modifications, 1.10-9 M): potency was lower than that of UM206 |
| UM206-rhodamine: UM206 with rhodamine attached to Lys^3 (Ac-CNK(rhodamine)TSEGMDGCEL-NH2; cysteine pairing not given here; reading uncertain) | – | – | – | – | effect of rhodamine attachment to Lys^3 on IC50 for blocking Wnt3a-induced luciferase expression (canonical Wnt signaling; HEK293 superTOPflash cells, not shown): did not affect its IC50 value; staining of tissue sections (Fzd-1 and -2; 1.10^−8 M, 15 minutes, two-foton microscopy): staining of tubular epithelium and panneth cells |
| CSCC[C@@H]1NC(=O)CNC(=O)[C@H](CCC(=O)O)NC(=O)[C@H](CO)NC(=O)[C@H]([C@@H](C)O)NC(=O)[C@H](CCCCN)NC(=O)[C@H](CC(N)=O)NC(=O)[C@@H](NC(C)=O)CSSC[C@@H](C(=O)N[C@@H](CCC(=O)O)C(=O)N[C@@H](CC(C)C)C(N)=O)NC(=O)CNC(=O)[C@H](CC(=O)O)NC1=O [UM206(S-S)] (Ac-CNKTSEGMDGCEL-NH2; disulfide 1-11) | – | – | – | potent agonist | agonist activity at frizzled-1 (frizzled-1 (rFzd-1); FIG. 3, Panel F): specific agonist; agonist activity at frizzled-2 (frizzled-2 (rFzd-2); FIG. 3, Panel F): specific agonist; agonist activity at frizzled-4 (hFzd-4): not for frizzled-4 or frizzled-5 |

The next lines start with results.

| block of Wnt3a-induced luciferase activity, rFzd-1 (frizzled-1 (rFzd-1)) | block of Wnt3a-induced luciferase activity, rFzd-2 (frizzled-2 (rFzd-2)) | Molecule | effect of the peptide by itself on luciferase activity (canonical Wnt signaling) | activity on the frizzled receptor: antagonist or agonist (canonical Wnt signaling) | other results |
| --- | --- | --- | --- | --- | --- |
| blocked almost completely | blocked almost completely | CC(=O)NCC(=O)N[C@@H](CO)C(=O)N[C@@H](CS)C(=O)N[C@@H](CO)C(=O)N[C@@H](CC(C)C)C(=O)N[C@@H](CCCCN)C(=O)N[C@H](C(=O)N[C@@H](CS)C(=O)N[C@@H](Cc1c[nH]c2ccccc12)C(=O)N[C@@H](CC(C)C)C(=O)N[C@@H](CCC(N)=O)C(=O)N[C@@H](CC(C)C)C(=O)N[C@@H](C)C(=O)N[C@@H](CC(=O)O)C(N)=O)[C@@H](C)O [UM208, GSCSLKTCWLQLAD] (Ac-GSCSLKTCWLQLAD-NH2) | none of the three peptides by itself could induce an increase in luciferase activity | – | – |
| blocked almost completely | blocked almost completely | CC[C@H](C)[C@H](NC(=O)CNC(C)=O)C(=O)N[C@@H](CCCCN)C(=O)N[C@@H](CCC(=O)O)C(=O)N[C@@H](CS)C(=O)N[C@@H](CCC(N)=O)C(=O)N[C@@H](Cc1ccc(O)cc1)C(=O)N[C@@H](CCC(N)=O)C(=O)N[C@@H](Cc1ccccc1)C(=O)N[C@@H](CCCNC(=N)N)C(=O)N[C@@H](Cc1c[nH]cn1)C(=O)N[C@@H](CCCNC(=N)N)C(=O)N[C@@H](CCCNC(=N)N)C(=O)N[C@@H](Cc1c[nH]c2ccccc12)C(=O)N[C@@H](CC(N)=O)C(=O)N[C@@H](CS)C(=O)N[C@@H](CO)C(=O)N[C@H](C(=O)N[C@H](C(=O)N[C@@H](CC(=O)O)C(N)=O)C(C)C)[C@@H](C)O [UM207] (Ac-GIKECQYQFRHRRWNCSTVD-NH2) | none of the three peptides by itself could induce an increase in luciferase activity | potent antagonist | blocking of UM206-rhodamine binding by prior incubation (Fzd-1 and -2; UM206-rhodamine 1.10^−8 M, UM207 1.10^−7 M, Wnt3a 1.10^−8 M): completely abolished the binding of UM206-rhodamine |
